The term IC50 denotes the concentration that inhibits the measured activity by half. Read a high IC50 as weaker potency.

For assay [1], the system named is U87MG/EGFRvIII intracranial tumors. Briefly: Intracranial U87MG/EGFRvIII xenograft in nude mice. It counts as in vivo, mouse. As to the method: Animals were housed, maintained and treated at Emory University in accordance with protocols approved by the Institutional Animal Care and Use Committee (IACUC) at Emory University. For xenograft animal models, U87MG/EGFRvIII cells (2 × 10^6) in 100 μl of PBS were inoculated subcutaneously into 6-week-old nude mice. Tumor growth was assessed every 3 days via size and body weight measurements. The total tumor volume (TV) was calculated according to the following formula: TV (mm^3) = a * b^2/2, where “a” is the […] diameter and “b” denotes the […] diameter. The mice were euthanized after 28 days. For the intracranial model, mice were placed in a stereotaxic instrument, and cells injection (1 × 10^5) in 2 μl was performed stereotaxically at coordinates anteroposterior (AP) -2.0 mm and mediolateral (ML) + 0.7 mm relative to bregma, and dorsoventral (DV) -3.0 mm from the dural surface. The needle remained in place for 5 min before it was removed slowly. The mice were placed on a heating pad until it began to recover from the surgery. After the surgery for 8 days, intraperitoneal (i.p.) injection was used at dose levels of 3 mg/kg, 10 mg/kg or control agent. This treatment was performed every 2 days for a total of 10 times. After the drug treatment, mice were euthanized and the tumor volumes were analyzed by MRI [37].
The tumors and primary organs from the nude mice of the above models were fixed in 10% formalin overnight and were then embedded in paraffin. Sections were prepared, and H&E staining was conducted to detect any histological changes of the tumors and organs. The expression of Ki67 in the tumor tissue slices was assessed using a technique that has been reported previously. Photographs were taken using a fluorescence microscope (Nikon, Japan).

The target in another assay is T1, GSTP1 F8A/Y108A (Homo sapiens, UniProt P09211, F9A/I105V/Y109A).
T1 construct: hexahistidine tag followed by a thrombin site (N); made in house; host or cells: Escherichia coli BL21 (DE3)
Briefly: GSTP1 kinetic assay, F8A/Y108A mutant. It counts as biochemical. Conditions: mean ± SEM (n=3). As to the method:
The enzymatic activity of GSTP1 and its mutations was measured through the increased absorbance at 340 nm, which derived from the conjugation of reduced glutathione (GSH) and 1-chloro-2,4-dinitrobenzene (CDNB). The conjugation was initiated by adding CDNB to the mixture of GSH and GSTP1 or its mutants, and OD was immediately and continually measured for 20 min at 25 °C. The final assay mixture included 1 mM CDNB, 1 mM GSH in the buffer of 100 mM potassium phosphate pH 6.5, 1 mM EDTA. The inhibitory potency of MNPC versus GSTP1 or mutants was determined by calculating the residual activity after incubated with MNPC for 30 min at room temperature. Parallel control was run to monitor spontaneous conjugation of GSH and CDNB in the absence of the enzyme, and absorbance change of the control was used for the correction of an enzymatic reaction. The inhibition rate in triplicate was calculated by GraphPad Prism software (GraphPad, San Diego, CA) to give IC50 using nonlinear regression analysis.

A further assay deals with U87MG/EGFRvIII cells. Briefly: Cell proliferation (MTT) assay, U87MG/EGFRvIII. It counts as cell-based, human. As to the method: The human glioblastoma cell line U87MG was stably transfected with vector control, pLHCX-EGFRvIII, pGFP-NQO1 and pRS-GSTP1, which were supplemented with various antibiotics. For EGFRvIII, 150 μg/mL of hygromycin was used; for pGFP-NQO1 and pRS-GSTP1, 0.7 μg/mL of puromycin was employed. The cells were supplemented with 10% fetal bovine serum (Hyclone, USA), penicillin (100 U/ml) and streptomycin (100 U/ml) (ABAM Life Technologies, USA) in a humidified incubator with 5% CO2 at 37 °C.
In vitro assessment was implemented for cell proliferation using the 3-(4, 5- dimethylthiazol- 2-yl)-2,5-diphenyltetrazolium bromide (MTT) assay. After different treatments with specific time periods, 10 μL of MTT (5 mg/mL in PBS, Sigma, USA) was added to each well and the plates were incubated for 3 h at 37 °C. The resulting formazan product was dissolved with DMSO. The absorbance at a wavelength of 490 nm was recorded using a microplate reader (BioTek Instruments Inc., USA).

The target of a further assay is T2, GSTP1 F8A (Homo sapiens, UniProt P09211, F9A/I105V).
T2 construct: hexahistidine tag followed by a thrombin site (N); made in house; host or cells: Escherichia coli BL21 (DE3)
Put plainly: Microscale thermophoresis (MST), F8A. Conditions: n.b. = no clear binding detected. As to the method: Since Tris buffer is incompatible with MST labeling, GSTP1 and its mutants were performed an initial buffer exchange to 20 mM HEPES pH 7.6, 200 mM NaCl before labeling. Then, the proteins were fluorescently labeled using Monolith Protein Labeling Kit RED-NHS 2nd generation dye (NanoTemper Technology, Munich, Germany) according to the protocol. MNPC was prepared with a series of concentrations (varying from 2 mM to 11 nM) at a dilution ratio of 1: 2. Six microliters of the fluorescence-labeled GSTP1 or mutations was mixed with 6 μl of variable concentration of MNPC and incubated for 10 min at room temperature. The mixtures were loaded into standard glass capillaries and analyzed on Monolith NT.115 at 25 °C, with 40% LED power and 100% Laser power in triplicate. Data were analyzed by NTAnalysis software to calculate the Kd values.
(In general: Microscale thermophoresis detects binding through changes in fluorescence in a small temperature gradient.)

The mark [2] stands for this setting: higher dose (10 mg/kg) i.p. every 2 days, 10 doses.

T2 sequence (P09211 whole entry F9A/I105V): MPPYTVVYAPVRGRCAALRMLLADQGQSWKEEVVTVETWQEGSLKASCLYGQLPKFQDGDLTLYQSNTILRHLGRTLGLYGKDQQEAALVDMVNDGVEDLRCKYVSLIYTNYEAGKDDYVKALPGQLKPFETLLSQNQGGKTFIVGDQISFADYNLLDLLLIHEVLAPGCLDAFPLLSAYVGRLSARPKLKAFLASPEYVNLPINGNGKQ
T1 sequence (P09211 whole entry F9A/I105V/Y109A): as the sequence (P09211 whole entry F9A/I105V) above, with Y109A counted along it

`Cc1onc(-c2ccccc2)c1C(=O)Nc1ncc([N+](=O)[O-])s1` [MNPC, 5-methyl-N-(5-nitro-thiazol-2-yl)-3-phenylisoxazole-4-carboxamide]: the “ROS levels, active caspase 3 and apoptosis in tumors” value in assay [1] (3 and 10 mg/kg i.p.) is on record as “dose-dependently increased”. In assay [1] (setting [2]), the Mouse survival entry is recorded as “enhanced mouse survival” and the “Tumor growth (intracranial tumor volume)” value is reported as “reduced tumor growth”. Also, the IC50 on GSTP1 F8A/Y108A was determined as 4.01 ± 0.6 µM. Besides, the Growth of cultures result with U87MG/EGFRvIII cells (0, 0.5, 1, 2 and 5 μM for 5 days, MTT) was “dose-dependently inhibited the growth”. Besides, in the assay with U87MG/EGFRvIII cells (Homo sapiens, U-87 MG, inhibition of cell proliferation/viability, MNPC treated 72 h), the IC50 worked out at 1.32 µM. The “Cell number in NQO1/GSTP1-depleted cells” value in the assay on U87MG/EGFRvIII cells (U87MG/EGFRvIII with si-NQO1, si-GSTP1 or both, MNPC 1 μM, 5 days) was “no effect on cell number”. In addition, the “Kd (μM), F8A” value at GSTP1 F8A was “n.b. and no detectable binding”.

For the origin of these results see paper PMC7579906, “Discovery of a dual inhibitor of NQO1 and GSTP1 for treating glioblastoma” (Journal of Hematology & Oncology, 2020).
